Measurements published in ChEMBL document CHEMBL1201862, “PubChem BioAssay data set” (2004).
The source made the active and inactive calls.

Experiments:
[1] = target: Peroxisome proliferator-activated receptor gamma/Nuclear receptor coactivator 2 (Homo sapiens, UniProt P37231); assay: (§1) TR-FRET dose response biochemical High Throughput Screening assay for agonists of the steroid receptor coactivator 2 (SRC-2) recruitment by the peroxisome proliferator-activated receptor gamma (PPAR gamma): non-selective agonists. [Related pubchem assays: 1297, 1032 ]; type: functional
[2] = target: Peroxisome proliferator-activated receptor gamma/Nuclear receptor coactivator 1 (Homo sapiens, UniProt P37231); assay: as §1, with “1 (SRC-1)” for “2 (SRC-2)”, “assays (depositor defined):AID1300, AID1808, AID504735, AID631]” for “assays: 1297, 1032 ]”; type: protein assay
[3] = target: Trypsin (Sus scrofa, UniProt P00761); assay: trypsin protease activity blockade – biochemical, quenched peptide fluorescence, cherry-pick, selectivity assay for Rce1 protease inhibitor project, dose response (AID 488789)
Sequence of Trypsin (P00761 whole entry): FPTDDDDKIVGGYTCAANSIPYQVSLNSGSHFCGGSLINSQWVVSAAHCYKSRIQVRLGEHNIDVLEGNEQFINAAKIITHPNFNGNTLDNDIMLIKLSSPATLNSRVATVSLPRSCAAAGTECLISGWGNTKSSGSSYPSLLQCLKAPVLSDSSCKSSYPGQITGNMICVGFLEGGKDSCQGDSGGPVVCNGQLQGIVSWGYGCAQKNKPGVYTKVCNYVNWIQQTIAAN

[4] = target: Peroxisome proliferator-activated receptor gamma/Nuclear receptor coactivator 3 (Homo sapiens, UniProt P37231); assay: as §1, with “3 (SRC-3)” for “2 (SRC-2)”, “1301 (Confirmation screen.), 1048 (Primary screen.)]” for “1297, 1032 ]”; type: functional
[5] = target: T1, Cytochrome P450 1A2 (Homo sapiens, UniProt P05177);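 further: PubChem cytochrome P450 panel assay, CYP1A2 panel member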
T1 sequence (P05177 whole entry): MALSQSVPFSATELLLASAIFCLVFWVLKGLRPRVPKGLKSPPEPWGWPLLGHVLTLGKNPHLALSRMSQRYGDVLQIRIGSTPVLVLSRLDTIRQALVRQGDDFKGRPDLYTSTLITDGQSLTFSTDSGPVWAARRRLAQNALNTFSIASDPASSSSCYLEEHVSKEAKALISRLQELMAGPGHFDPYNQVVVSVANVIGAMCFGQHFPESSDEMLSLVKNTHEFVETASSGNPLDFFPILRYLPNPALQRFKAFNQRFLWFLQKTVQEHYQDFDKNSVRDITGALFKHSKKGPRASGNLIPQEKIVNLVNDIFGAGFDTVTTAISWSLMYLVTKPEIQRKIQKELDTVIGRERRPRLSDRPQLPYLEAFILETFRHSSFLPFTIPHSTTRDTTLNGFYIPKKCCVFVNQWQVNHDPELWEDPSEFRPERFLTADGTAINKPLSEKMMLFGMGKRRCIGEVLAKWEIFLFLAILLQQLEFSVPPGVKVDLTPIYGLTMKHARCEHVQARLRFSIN

[6] = target: Cytochrome P450 2D6 (Homo sapiens, UniProt P10635);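 further: CYP2D6 member of a cytochrome P450 panel assay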
Sequence of Cytochrome P450 2D6 (P10635 whole entry): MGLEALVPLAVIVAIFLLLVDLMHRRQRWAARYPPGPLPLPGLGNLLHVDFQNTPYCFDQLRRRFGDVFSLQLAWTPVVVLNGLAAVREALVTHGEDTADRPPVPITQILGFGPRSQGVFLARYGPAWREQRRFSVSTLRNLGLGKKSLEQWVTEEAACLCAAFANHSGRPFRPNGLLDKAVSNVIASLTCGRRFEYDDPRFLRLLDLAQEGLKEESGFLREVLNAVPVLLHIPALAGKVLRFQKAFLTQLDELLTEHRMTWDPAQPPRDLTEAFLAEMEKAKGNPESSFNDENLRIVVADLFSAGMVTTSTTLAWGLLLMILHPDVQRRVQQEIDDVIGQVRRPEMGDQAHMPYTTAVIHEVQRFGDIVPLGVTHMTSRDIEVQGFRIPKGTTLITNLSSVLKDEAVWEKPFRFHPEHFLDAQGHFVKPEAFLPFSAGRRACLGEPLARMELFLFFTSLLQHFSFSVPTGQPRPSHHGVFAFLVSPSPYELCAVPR

[7] = target: T2, CAAX prenyl protease 2 (Saccharomyces cerevisiae S288c, UniProt Q03530); type: biochemical
T2 sequence (Q03530 whole entry): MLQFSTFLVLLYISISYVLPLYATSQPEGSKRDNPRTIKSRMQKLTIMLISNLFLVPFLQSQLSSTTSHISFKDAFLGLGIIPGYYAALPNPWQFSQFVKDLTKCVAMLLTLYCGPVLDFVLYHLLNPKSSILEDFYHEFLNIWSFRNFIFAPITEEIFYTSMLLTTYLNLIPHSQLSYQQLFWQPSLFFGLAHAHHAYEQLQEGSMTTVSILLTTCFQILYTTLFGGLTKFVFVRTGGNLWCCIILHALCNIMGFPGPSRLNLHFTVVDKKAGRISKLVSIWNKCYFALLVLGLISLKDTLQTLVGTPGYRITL

[8] = target: Intestinal-type alkaline phosphatase (Mus musculus, UniProt P24822); assay: PubChem AID 488785; type: functional
Sequence of Intestinal-type alkaline phosphatase (Mus musculus, UniProt P24822) (P24822 whole entry): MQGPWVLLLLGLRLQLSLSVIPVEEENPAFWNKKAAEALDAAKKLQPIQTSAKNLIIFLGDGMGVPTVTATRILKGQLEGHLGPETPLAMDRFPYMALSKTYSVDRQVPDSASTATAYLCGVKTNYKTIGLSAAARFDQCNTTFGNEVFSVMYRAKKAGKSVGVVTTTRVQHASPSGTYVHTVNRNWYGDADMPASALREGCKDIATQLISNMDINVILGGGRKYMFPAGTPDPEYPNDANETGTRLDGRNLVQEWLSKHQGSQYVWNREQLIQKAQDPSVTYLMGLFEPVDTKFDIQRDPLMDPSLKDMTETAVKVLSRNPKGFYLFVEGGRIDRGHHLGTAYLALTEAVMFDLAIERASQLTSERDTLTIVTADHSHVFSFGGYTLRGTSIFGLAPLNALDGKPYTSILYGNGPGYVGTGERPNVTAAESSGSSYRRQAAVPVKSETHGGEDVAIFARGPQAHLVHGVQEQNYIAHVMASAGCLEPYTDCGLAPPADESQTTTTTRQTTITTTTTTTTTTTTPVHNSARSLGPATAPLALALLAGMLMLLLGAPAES

[9] = target: Intestinal-type alkaline phosphatase (Homo sapiens, UniProt P09923); assay: inhibition of human intestinal alkaline phosphatase – biochemical, dose response (AID 488876); type: functional
Sequence of Intestinal-type alkaline phosphatase (Homo sapiens, UniProt P09923) (P09923 whole entry): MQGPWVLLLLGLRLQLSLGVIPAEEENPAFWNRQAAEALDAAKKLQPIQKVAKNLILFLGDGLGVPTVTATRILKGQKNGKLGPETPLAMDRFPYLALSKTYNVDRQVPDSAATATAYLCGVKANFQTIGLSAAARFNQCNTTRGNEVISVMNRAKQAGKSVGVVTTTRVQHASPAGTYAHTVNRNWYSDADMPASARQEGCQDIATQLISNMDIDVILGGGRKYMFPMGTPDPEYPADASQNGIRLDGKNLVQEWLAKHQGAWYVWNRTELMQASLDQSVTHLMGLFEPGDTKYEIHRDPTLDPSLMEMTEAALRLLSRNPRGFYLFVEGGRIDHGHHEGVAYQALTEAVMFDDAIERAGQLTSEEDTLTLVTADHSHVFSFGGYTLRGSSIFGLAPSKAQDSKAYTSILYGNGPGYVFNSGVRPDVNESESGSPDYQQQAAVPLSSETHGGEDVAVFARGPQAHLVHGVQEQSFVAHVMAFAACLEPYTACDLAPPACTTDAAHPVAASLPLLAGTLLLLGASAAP

[10] = target: T3, Alkaline phosphatase, tissue-nonspecific isozyme (Homo sapiens, UniProt P05186); assay: TNAP enzyme inhibition by screening hits, dose response, selectivity assay for mouse IAP inhibitor project, biochemical, human TNAP, uHTS hits (AID 488906); type: functional
T3 sequence (P05186 whole entry): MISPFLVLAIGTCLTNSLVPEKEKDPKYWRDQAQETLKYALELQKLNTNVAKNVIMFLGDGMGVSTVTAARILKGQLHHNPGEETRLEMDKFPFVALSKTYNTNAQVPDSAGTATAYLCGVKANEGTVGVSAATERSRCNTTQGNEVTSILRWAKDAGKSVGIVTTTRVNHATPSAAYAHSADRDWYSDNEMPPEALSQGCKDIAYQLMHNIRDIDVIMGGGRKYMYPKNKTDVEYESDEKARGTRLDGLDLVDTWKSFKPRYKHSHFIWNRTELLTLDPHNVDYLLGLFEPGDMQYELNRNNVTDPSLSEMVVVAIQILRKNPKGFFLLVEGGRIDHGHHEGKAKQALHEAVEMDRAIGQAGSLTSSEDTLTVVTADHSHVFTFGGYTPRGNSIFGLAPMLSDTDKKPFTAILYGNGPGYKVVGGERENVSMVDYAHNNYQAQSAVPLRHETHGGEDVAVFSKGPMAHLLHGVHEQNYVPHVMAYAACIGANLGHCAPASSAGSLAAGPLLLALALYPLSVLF

[11] = viability loss of HMLE_sh_eGFP cells – cell-based, luminescence, counter-screen for HMLE_sh_ECad selective toxicity project, dose response (AID 463074); type: functional, Homo sapiens;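 further: HMLE human mammary epithelial cells expressing control shRNA against eGFP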
[12] = Luminescence Cell-Based Dose Retest to Confirm Inhibitors of Cancer Stem Cells. [Related pubchem assays (depositor defined):AID2717, AID2721]; type: functional; conditions: Homo sapiens
[13] = target: T4, Voltage-gated N-type calcium channel alpha-1B subunit/Amyloid beta A4 precursor protein-binding family A member 1 (Homo sapiens, UniProt Q00975+Q02410); type: protein assay
T4 sequence (Q00975 whole entry): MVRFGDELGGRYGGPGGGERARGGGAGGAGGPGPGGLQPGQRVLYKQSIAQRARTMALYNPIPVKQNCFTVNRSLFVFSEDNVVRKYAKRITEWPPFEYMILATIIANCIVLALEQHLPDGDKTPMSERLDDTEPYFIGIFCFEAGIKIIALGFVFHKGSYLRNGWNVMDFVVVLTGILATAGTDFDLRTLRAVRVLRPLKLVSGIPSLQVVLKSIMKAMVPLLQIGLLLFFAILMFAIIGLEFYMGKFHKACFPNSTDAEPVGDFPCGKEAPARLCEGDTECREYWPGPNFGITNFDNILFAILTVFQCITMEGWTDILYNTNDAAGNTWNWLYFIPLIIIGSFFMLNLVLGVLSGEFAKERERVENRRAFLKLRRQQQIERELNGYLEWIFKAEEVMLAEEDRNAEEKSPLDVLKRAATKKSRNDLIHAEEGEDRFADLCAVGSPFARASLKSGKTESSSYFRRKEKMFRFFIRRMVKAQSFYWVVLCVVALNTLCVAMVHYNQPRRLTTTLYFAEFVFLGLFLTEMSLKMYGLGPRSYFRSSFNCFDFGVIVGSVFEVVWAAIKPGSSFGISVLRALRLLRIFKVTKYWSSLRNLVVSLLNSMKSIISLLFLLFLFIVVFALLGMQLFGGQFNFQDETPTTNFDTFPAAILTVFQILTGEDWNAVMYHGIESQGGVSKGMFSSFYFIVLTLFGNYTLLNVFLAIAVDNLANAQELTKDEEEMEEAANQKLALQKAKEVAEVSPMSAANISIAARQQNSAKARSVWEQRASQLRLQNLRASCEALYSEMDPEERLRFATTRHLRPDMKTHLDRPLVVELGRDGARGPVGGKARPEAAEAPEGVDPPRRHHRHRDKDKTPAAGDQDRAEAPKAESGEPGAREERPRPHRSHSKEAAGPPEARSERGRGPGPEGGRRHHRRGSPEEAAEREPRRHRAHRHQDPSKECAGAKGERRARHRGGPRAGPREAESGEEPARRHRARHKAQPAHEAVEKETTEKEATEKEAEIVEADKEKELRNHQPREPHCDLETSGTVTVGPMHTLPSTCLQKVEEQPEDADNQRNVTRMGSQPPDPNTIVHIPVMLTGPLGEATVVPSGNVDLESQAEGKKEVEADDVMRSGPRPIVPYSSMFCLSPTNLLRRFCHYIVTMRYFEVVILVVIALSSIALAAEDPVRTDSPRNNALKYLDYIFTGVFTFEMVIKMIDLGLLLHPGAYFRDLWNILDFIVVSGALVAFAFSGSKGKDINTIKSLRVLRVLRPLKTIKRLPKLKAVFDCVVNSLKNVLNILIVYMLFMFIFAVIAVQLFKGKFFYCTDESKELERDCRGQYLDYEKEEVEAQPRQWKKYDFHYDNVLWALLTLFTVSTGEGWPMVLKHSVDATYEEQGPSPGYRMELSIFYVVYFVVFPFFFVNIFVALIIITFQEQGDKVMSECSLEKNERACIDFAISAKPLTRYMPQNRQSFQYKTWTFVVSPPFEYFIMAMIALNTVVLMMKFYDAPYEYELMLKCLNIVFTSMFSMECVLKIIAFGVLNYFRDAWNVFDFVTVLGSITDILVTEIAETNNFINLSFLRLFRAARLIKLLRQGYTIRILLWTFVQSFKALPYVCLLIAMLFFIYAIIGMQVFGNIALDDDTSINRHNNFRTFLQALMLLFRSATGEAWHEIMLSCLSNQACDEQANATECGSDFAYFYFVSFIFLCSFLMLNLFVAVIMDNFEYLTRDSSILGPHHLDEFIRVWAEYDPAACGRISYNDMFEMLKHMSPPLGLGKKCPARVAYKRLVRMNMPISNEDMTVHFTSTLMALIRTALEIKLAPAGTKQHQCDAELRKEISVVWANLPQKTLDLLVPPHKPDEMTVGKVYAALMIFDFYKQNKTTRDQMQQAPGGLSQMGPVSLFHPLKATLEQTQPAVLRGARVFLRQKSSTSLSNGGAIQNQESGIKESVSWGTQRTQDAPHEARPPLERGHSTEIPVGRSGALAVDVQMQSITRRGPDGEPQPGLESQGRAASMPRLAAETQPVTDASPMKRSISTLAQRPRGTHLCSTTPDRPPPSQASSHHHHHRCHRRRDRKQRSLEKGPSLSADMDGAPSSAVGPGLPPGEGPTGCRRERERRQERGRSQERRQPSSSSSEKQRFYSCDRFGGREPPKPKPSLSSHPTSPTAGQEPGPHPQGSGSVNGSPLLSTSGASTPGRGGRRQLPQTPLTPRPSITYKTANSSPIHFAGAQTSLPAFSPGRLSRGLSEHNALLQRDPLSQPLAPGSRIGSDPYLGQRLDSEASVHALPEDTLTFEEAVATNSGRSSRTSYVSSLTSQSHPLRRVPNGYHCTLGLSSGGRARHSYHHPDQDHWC
T4 sequence (Q02410 whole entry): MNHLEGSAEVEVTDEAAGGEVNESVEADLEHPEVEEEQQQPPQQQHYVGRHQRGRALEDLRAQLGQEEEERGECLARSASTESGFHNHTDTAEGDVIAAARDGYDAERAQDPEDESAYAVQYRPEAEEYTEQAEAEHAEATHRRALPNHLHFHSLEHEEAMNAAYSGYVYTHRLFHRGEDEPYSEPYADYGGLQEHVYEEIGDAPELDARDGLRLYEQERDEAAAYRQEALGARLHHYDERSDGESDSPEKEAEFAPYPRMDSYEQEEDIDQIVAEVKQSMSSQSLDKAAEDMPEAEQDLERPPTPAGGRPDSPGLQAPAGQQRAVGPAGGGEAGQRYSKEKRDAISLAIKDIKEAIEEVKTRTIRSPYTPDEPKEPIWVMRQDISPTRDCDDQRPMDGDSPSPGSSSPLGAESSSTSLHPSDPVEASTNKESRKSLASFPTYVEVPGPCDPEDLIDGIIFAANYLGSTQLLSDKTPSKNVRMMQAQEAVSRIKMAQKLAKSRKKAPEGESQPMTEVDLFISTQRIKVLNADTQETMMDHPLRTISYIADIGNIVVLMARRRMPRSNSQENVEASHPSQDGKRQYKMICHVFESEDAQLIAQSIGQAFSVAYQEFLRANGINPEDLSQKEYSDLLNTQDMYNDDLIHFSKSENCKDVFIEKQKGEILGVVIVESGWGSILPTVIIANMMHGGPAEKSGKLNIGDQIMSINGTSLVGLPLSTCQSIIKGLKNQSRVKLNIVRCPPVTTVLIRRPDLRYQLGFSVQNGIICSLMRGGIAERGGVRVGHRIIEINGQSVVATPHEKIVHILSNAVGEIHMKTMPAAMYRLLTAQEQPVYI

[14] = target: T4, Voltage-gated N-type calcium channel alpha-1B subunit/Amyloid beta A4 precursor protein-binding family A member 1; type: protein assay; remark: listed apart in the source
[15] = test system: Escherichia coli; assay: microbe, parasite or virus in culture
[16] = test system: Streptococcus sp. 'group A'; assay: Streptococcus pyogenes SK(-)GAS viability under kanamycin – luminescence, BacTiterGlo, confirmation, counter-screen for streptokinase expression inhibitor project, dose response (AID 1900); type: functional, organism-based
[17] = target: T5, Streptokinase A (Streptococcus pyogenes serotype M1, UniProt P10520); assay: viability-normalized secreted streptokinase activity reduction – plasminogen activation absorbance, OD405, dose response (AID 1914); type: functional, Streptococcus pyogenes M1 GAS;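 further: secreted streptokinase activity via plasminogen activation per viability signal from cell pellet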
T5 sequence (P10520 whole entry): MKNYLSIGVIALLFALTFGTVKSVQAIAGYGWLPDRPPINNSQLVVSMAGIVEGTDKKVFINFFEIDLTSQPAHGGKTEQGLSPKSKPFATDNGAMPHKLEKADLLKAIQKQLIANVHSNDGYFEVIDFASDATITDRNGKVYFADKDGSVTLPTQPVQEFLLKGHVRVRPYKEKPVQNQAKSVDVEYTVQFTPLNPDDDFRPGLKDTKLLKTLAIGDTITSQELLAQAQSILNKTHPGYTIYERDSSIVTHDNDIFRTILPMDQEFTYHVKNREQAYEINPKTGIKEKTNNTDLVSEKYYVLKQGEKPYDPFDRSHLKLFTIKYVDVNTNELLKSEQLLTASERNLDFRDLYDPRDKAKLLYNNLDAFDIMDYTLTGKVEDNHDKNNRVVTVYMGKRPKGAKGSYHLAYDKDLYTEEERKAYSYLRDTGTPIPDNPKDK

[18] = test system: Streptococcus; assay: GAS UMAA2166 growth inhibition – luminescence, BacTiterGlo, counter-screen for streptokinase expression inhibitor project, dose response (AID 1915); type: functional, organism-based;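 further: potency for reduction of bacterial viability or growth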
[19] = target: Cytochrome P450 2C19 (Homo sapiens, UniProt P33261); assay: Cytochrome panel assay with activity outcomes. Panel member name: p450-cyp2c19 Compounds with AC50 equal or less than 10 uM are considered active; type: functional
[20] = target: T6, Mannose-6-phosphate isomerase (Homo sapiens, UniProt P34949); assay: phosphomannose isomerase inhibition – biochemical, fluorescence intensity, confirmation (AID 1535)
T6 sequence (P34949 whole entry): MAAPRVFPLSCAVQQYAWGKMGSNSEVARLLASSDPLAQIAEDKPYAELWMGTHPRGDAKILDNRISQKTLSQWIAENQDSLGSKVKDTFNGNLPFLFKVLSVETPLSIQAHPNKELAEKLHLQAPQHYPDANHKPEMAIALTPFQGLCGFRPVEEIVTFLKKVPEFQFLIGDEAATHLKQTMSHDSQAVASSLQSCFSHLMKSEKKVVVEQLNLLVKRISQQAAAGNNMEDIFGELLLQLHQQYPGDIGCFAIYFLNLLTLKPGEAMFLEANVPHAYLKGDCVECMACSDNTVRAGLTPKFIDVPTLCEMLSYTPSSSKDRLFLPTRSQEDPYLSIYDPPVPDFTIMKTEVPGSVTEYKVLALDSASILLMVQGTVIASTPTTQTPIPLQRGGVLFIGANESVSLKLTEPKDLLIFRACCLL

[21] = target: T7, Phosphomannomutase 2 (Homo sapiens, UniProt O15305); assay: Counter screen SAR assay for PMM2 inhibitors via a fluorescence intensity assay. [Related pubchem assays (depositor defined):AID1545, AID1574]
T7 sequence (O15305 whole entry): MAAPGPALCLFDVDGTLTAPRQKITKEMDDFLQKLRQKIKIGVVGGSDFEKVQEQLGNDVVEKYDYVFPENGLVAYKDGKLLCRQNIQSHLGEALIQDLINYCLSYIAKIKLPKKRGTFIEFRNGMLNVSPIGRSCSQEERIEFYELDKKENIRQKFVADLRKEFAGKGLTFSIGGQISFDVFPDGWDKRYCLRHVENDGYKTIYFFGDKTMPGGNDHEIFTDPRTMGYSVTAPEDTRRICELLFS

[22] = target: T8, Phosphoethanolamine/phosphocholine phosphatase (Homo sapiens, UniProt Q8TCT1); assay: SAR assay for compounds that inhibit PHOSPHO1. [Related pubchem assays (depositor defined):AID1545, AID1565, AID1574]
T8 sequence (Q8TCT1 whole entry): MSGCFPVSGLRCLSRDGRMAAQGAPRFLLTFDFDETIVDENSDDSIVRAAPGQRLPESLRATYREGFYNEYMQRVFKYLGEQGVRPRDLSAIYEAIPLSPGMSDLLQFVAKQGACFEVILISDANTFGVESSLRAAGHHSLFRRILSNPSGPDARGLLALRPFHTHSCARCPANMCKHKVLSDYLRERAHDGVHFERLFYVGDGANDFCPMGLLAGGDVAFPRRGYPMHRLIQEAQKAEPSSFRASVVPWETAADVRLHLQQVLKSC

[23] = test system: Vero; assay: cells; type: functional, cell-based; conditions: Chlorocebus sabaeus

For `S=c1[nH]nc(-c2ccccc2)o1`, the EC50 [1] was 8.1 µM (active), the EC50 [2] was 16.2 µM (inactive) and the AC50 [3] was 13.3 µM (active). For the same compound, the EC50 [4] was > 79.4 µM (not active).

In the case of `COc1ccc2c(c1)c(CC(=O)O)c(C)n2C(=O)c1ccccc1`, the AC50 [5] is reported as 12.6 µM (inconclusive) and the AC50 [6] is reported as “inconclusive”.

For `CC1CCN(C(=O)c2cc3nc(-c4ccccc4)cc(-c4ccccc4)n3n2)CC1`, the AC50 [7] was 19.1 µM (active) and the AC50 [3] was > 100 µM (inactive).

For `FC(F)Oc1ccc(NC(S)=NC2CCSc3ccccc32)cc1` (centres undefined), the IC50 [8] was 5.64 µM (active), the IC50 [9] was > 100 µM (inactive) and the IC50 [10] was > 100 µM (inactive).

In the case of `COc1cccc(S(=O)(=O)NCc2ccc(C(=O)Nc3ccc(Cl)cc3)cc2)c1`, the AC50 [11] is reported as 102 µM (active) and the AC50 [12] is reported as 35 µM (active).

With `Cc1ccc(C)c(NS(=O)(=O)c2ccc3[nH]c(=O)oc3c2)c1` the IC50 [8] was 15.7 µM (active), the IC50 [9] was > 100 µM (inactive) and the IC50 [10] was > 100 µM (inactive).

In the case of `CCOC(=O)c1cc(-c2ccc(F)cc2)nc2c1c(=O)[nH]c(=O)n2Cc1ccccc1`, the IC50 [13] is reported as > 50 µM (inactive) and the IC50 [14] is reported as > 56.8 µM (not active).

With `CCOC(=O)c1sc(-c2ccccc2)cc1NC(=O)Nc1ccc([N+](=O)[O-])cc1` the AC50 [15] was 35 µM (active).

For `C=CCN(CC=C)S(=O)(=O)c1ccc(NC(=S)NC(=O)C2CC2)cc1`, the EC50 [16] was > 150 µM (not active), the EC50 [17] was > 150 µM (not active) and the EC50 [18] was > 150 µM (not active). For the same compound, the AC50 [15] was 29.4 µM (active).

In the case of `O=C(CSc1ccc2ccccc2c1Br)Nc1cccc(S(=O)(=O)NC2=NCCCCC2)c1`, the AC50 [11] is reported as 48 µM (active) and the AC50 [12] is reported as 1.92 µM (active).

For `COc1ccc(N2CC(C(=O)Nc3cc(C)on3)CC2=O)cc1` (centres undefined), the AC50 [6] was “inconclusive”.

For `Cc1cccnc1NC(=S)Nc1ccc(F)cc1F`, the IC50 [13] was > 50 µM (inactive) and the IC50 [14] was 11.5 µM (active).

With `CN(C)CCNC(=O)C1CCCNC1=O` (centres undefined) the AC50 [6] was “inconclusive” and the AC50 [19] was “inconclusive”.

For `Cc1cccc(-n2sc3ccccc3c2=O)c1`, the IC50 [20] was 5.29 µM (active), the IC50 [21] was 22.3 µM (active) and the IC50 [22] was 2.73 µM (inactive).

In the case of `Cc1cccc(-n2sc3cc(F)ccc3c2=O)c1C`, the IC50 [20] is reported as 22.7 µM (active), the IC50 [21] is reported as 18.3 µM (active) and the IC50 [22] is reported as 6.54 µM (inactive).

In the case of `Cc1c(Cl)cccc1-n1sc2cc([N+](=O)[O-])cc(OCC(F)(F)F)c2c1=O`, the IC50 [20] is reported as 3.03 µM (active), the IC50 [21] is reported as 9.06 µM (active) and the IC50 [22] is reported as 0.555 µM (active).

In the case of `CCOC(=O)C1(Cc2cccc(F)c2)CCN(C2CCOCC2)CC1`, the AC50 [15] is reported as 35.1 µM (active).

With `CCCn1cnc2c(SCc3ccccc3Cl)nc(N)nc21` the IC50 [23] was > 25 µM (active).

With `C=CCn1/c(=N/C(=O)c2ccc(S(=O)(=O)N3CCCc4ccccc43)cc2)sc2cc(S(N)(=O)=O)ccc21` the AC50 [11] was 84.8 µM (active) and the AC50 [12] was 2.01 µM (active).

With `COCc1c(C(=O)N/N=C/C2CC=CCC2)nnn1-c1nonc1N` (centres undefined) the AC50 [7] was 29.9 µM (active).
